Test results from paper PMC4300089, “Structure-Guided Design of Selective Epac1 and Epac2 Agonists” (PLoS Biology, 2015).

Experiments:
Assay type in all cases: biochemical
[1] = target: T1, PKA-Iβ (Homo sapiens, UniProt P31321); experiment: PKA activity assay, PKA-Iβ; conditions: for A (PKA activity): PKAIβ
T1 construct: made in house
Method: (§1) The recombinant human PKA catalytic subunit (Cα1) and the four human PKA regulatory subunits (RIα, RIβ, RIIα, RIIβ) were expressed, purified, and characterized as described. […] PKA holoenzymes were formed by mixing the R- and C-subunit at a molar ratio of 1.2:1 and extensive dialysis against 20 mM MOPS (pH 7.0), 150 mM NaCl, 2.5 mM β-mercaptoethanol, supplemented with 1 mM ATP and 10 mM MgCl2 for PKA-I at 4°C overnight. PKA holoenzymes were used at about 20 nM for the activation assay. The apparent activation constants (Kact) were determined by fitting the concentration-dependent activity to a sigmoid dose-response model.

[2] = target: T2, Epac2^fl (Mus musculus, UniProt Q9EQZ6); experiment: Epac activation assay, full length Epac2; parameters: made in house
T2 sequence (Q9EQZ6 1-993 isoform Q9EQZ6-3): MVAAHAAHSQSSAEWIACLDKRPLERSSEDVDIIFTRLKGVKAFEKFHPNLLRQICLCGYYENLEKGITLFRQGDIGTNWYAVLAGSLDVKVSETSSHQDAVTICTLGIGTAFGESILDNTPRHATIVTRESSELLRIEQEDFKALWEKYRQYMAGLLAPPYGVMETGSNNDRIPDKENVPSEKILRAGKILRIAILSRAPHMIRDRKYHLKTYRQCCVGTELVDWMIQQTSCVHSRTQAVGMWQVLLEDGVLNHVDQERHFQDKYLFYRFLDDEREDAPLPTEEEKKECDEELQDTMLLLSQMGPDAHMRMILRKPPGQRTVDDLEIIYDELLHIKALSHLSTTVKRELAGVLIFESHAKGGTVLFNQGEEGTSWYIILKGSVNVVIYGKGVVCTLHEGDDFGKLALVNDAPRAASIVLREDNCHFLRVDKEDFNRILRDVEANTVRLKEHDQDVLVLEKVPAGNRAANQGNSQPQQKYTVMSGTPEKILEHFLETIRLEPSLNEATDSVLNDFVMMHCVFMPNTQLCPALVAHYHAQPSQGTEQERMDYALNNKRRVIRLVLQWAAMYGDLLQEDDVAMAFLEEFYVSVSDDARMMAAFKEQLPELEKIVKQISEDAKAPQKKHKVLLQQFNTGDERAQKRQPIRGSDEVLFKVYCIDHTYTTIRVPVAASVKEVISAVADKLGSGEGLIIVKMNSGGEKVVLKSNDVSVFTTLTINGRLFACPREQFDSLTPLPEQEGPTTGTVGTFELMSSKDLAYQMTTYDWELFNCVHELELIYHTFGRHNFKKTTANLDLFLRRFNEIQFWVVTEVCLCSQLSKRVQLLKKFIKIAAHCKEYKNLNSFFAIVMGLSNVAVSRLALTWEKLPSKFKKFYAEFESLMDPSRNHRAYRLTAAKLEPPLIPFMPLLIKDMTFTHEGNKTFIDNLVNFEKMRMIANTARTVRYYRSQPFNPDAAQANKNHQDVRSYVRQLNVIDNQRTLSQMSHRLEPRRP
Method: Murine Epac2 was used as all previous structural studies were performed with it.
The activity of Epac was determined by a fluorescence assay. […] The fluorescence intensity of Rap1B•mGDP is approximately twice that of free mGDP, and thus, nucleotide exchange can be observed as a decay in fluorescence upon the addition of excess unlabeled GDP.

[3] = target: T3, PKA-Iα (Homo sapiens, UniProt P10644); experiment: PKA activity assay (coupled spectrophotometric, Kemptide), PKA-Iα; conditions: for A (PKA activity): PKAIα
T3 construct: made in house
T3 sequence (P10644 whole entry): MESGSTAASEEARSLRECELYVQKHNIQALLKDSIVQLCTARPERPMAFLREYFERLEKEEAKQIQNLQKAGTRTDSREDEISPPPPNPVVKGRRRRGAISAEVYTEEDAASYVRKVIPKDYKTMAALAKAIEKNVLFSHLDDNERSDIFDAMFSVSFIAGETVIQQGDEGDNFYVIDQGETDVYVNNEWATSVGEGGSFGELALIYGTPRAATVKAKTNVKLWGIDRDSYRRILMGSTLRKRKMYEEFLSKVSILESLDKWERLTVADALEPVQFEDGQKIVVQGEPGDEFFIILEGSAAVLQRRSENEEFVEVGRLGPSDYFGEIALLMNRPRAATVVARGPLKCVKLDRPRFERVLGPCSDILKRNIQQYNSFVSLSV
Method: as §1

[4] = target: T4, PKA-IIβ (Homo sapiens, UniProt P31323); experiment: PKA activity assay, PKA-IIβ; conditions: for A (PKA activity): PKAIIβ
T4 construct: made in house
T4 sequence (P31323 whole entry): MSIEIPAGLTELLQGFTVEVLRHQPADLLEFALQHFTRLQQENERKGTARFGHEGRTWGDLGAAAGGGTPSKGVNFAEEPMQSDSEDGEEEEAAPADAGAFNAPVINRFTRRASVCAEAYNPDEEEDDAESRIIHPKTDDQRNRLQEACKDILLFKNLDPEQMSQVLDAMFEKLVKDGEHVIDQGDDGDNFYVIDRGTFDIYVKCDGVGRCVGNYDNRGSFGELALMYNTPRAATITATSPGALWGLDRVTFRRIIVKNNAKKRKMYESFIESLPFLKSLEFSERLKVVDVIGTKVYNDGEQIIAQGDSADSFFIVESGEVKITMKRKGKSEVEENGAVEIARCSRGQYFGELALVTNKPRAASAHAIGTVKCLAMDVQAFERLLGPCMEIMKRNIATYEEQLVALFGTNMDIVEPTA
Method: as §1

T1 sequence (P31321 whole entry): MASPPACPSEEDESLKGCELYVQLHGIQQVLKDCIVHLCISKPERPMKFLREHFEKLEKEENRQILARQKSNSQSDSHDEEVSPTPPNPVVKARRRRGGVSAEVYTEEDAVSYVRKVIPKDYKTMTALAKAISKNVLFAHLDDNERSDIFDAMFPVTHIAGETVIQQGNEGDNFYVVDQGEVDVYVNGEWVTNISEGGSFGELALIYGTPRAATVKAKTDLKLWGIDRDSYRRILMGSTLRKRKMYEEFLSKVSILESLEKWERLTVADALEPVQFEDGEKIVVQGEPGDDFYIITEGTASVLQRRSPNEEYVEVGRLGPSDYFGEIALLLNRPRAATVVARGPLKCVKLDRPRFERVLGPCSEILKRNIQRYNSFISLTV

COC1C2OP(=O)(O)OCC2OC1n1c(Sc2ccc(Cl)cc2)nc2c(N)ncnc21 [D-007, 8-pCPT-2′-O-Me-cAMP, reference compound]
EC50 ([1]; PKA-Iβ, read-out: Kact): 18 µM | A (PKA activity) ([1]; concentration 1 μM): 5.38 U/mg | A (PKA activity) ([1]; concentration 1.00E+01 μM): 9.18 U/mg | A (PKA activity) ([1]; concentration 1.00E+03 μM): 1.84E+01 U/mg | A (PKA activity) ([1]; concentration 1.00E-01 μM): 5.43 U/mg | A (PKA activity) ([1]; concentration 1.00E-03 μM): 4.7 U/mg | A (PKA activity) ([1]; concentration 1.00E-05 μM): 4.53 U/mg | A (PKA activity) ([1]; concentration 2.50E+01 μM): 1.31E+01 U/mg | A (PKA activity) ([1]; concentration 2.50E+02 μM): 1.60E+01 U/mg | A (PKA activity) ([1]; concentration 2.50E+03 μM): 1.79E+01 U/mg | kobs ([2]; 0.3 μM compound): 1.59e-05 s⁻¹ | kobs ([2]; 0.5 μM compound): 1.62e-05 s⁻¹ | kobs ([2]; 0.8 μM compound): 1.75e-05 s⁻¹ | kobs ([2]; 1 μM compound): 1.95e-05 s⁻¹ | kobs ([2]; 2 μM compound): 2.18e-05 s⁻¹ | kobs ([2]; 3 μM compound): 2.37e-05 s⁻¹ | kobs ([2]; 4 μM compound): 2.69e-05 s⁻¹ | kobs ([2]; 5 μM compound): 2.86e-05 s⁻¹ | kobs ([2]; 6 μM compound): 3.39e-05 s⁻¹ | kobs ([2]; 7 μM compound): 3.51e-05 s⁻¹ | kobs ([2]; 8 μM compound): 3.74e-05 s⁻¹ | kobs ([2]; 10 μM compound): 4.22e-05 s⁻¹ | kobs ([2]; 20 μM compound): 5.69e-05 s⁻¹ | kobs ([2]; 30 μM compound): 7e-05 s⁻¹ | kobs ([2]; 40 μM compound): 7.51e-05 s⁻¹ | kobs ([2]; 50 μM compound): 7.76e-05 s⁻¹ | kobs ([2]; 60 μM compound): 8.43e-05 s⁻¹ | kobs ([2]; 70 μM compound): 8.92e-05 s⁻¹ | kobs ([2]; 80 μM compound): 9.01e-05 s⁻¹ | kobs ([2]; 100 μM compound): 9.57e-05 s⁻¹ | kobs ([2]; 200 μM compound): 9.52e-05 s⁻¹ | kobs ([2]; 400 μM compound): 9.57e-05 s⁻¹ | kobs ([2]; 600 μM compound): 9.06e-05 s⁻¹ | kobs ([2]; 800 μM compound): 8.29e-05 s⁻¹ | ability to reach half-maximal cAMP activity ([2]; Epac2): reaches half-maximal cAMP activity with Epac2 only under saturating conditions | AC50 ([2]; Epac2^fl): 16 µM | Rel. kmax ([2]; Epac2^fl, maximal activity relative to cAMP): 0.4 | EC50 ([3]; PKA-Iα, read-out: Kact): 14 µM | A (PKA activity) ([3]; concentration 1 μM): 3.924 U/mg | A (PKA activity) ([3]; concentration 1.00E+01 μM): 1.06E+01 U/mg | A (PKA activity) ([3]; concentration 1.00E+02 μM): 1.58E+01 U/mg | A (PKA activity) ([3]; concentration 1.00E-01 μM): 3.7714 U/mg | A (PKA activity) ([3]; concentration 1.00E-03 μM): 3.6515 U/mg | A (PKA activity) ([3]; concentration 1.00E-05 μM): 2.6923 U/mg | A (PKA activity) ([3]; concentration 2.50E+01 μM): 1.22E+01 U/mg | A (PKA activity) ([3]; concentration 2.50E+02 μM): 1.83E+01 U/mg | A (PKA activity) ([3]; concentration 5.00E+02 μM): 1.79E+01 U/mg | A (PKA activity) ([3]; concentration […]): 7.9352 U/mg | EC50 ([4]; PKA-IIβ, read-out: Kact): 50 µM | A (PKA activity) ([4]; concentration 1 μM): 6.99 U/mg | A (PKA activity) ([4]; concentration 1.00E+01 μM): 1.06E+01 U/mg | A (PKA activity) ([4]; concentration 1.00E-01 μM): 6.554 U/mg | A (PKA activity) ([4]; concentration 1.00E-05 μM): 2.8563 U/mg | A (PKA activity) ([4]; concentration 2.50E+02 μM): 1.60E+01 U/mg | A (PKA activity) ([4]; concentration 5.00E+01 μM): 1.46E+01 U/mg | A (PKA activity) ([4]; concentration 5.00E+02 μM): 1.87E+01 U/mg

Cc1ccc(CSc2nc3c(N)ncnc3n2[C@@H]2O[C@@H]3CO[P@](O)(=S)O[C@H]3[C@H]2O)cc1 [S-230, Sp-8-pMeBnT-cAMPS]
A (PKA activity) ([1]; concentration 1.00E+01 μM): 2.81 U/mg | A (PKA activity) ([1]; concentration 1.00E-01 μM): 5.21 U/mg | A (PKA activity) ([1]; concentration 1.00E-03 μM): 4.71 U/mg | A (PKA activity) ([1]; concentration 1.00E-05 μM): 4.53 U/mg | A (PKA activity) ([1]; concentration 2.50E+02 μM): 3.19 U/mg | kobs ([2]; 0.2 μM compound): 2.5e-05 s⁻¹ | kobs ([2]; 0.3 μM compound): 2.9e-05 s⁻¹ | kobs ([2]; 0.4 μM compound): 3.1e-05 s⁻¹ | kobs ([2]; 0.5 μM compound): 3.3e-05 s⁻¹ | kobs ([2]; 0.6 μM compound): 3.6e-05 s⁻¹ | kobs ([2]; 0.7 μM compound): 4e-05 s⁻¹ | kobs ([2]; 0.8 μM compound): 4.1e-05 s⁻¹ | kobs ([2]; 1 μM compound): 4.7e-05 s⁻¹ | kobs ([2]; 2 μM compound): 8.9e-05 s⁻¹ | kobs ([2]; 3 μM compound): 0.000128 s⁻¹ | kobs ([2]; 4 μM compound): 0.000139 s⁻¹ | kobs ([2]; 5 μM compound): 0.000145 s⁻¹ | kobs ([2]; 6 μM compound): 0.000194 s⁻¹ | kobs ([2]; 7 μM compound): 0.000209 s⁻¹ | kobs ([2]; 8 μM compound): 0.000213 s⁻¹ | kobs ([2]; 10 μM compound): 0.000238 s⁻¹ | kobs ([2]; 20 μM compound): 0.000358 s⁻¹ | kobs ([2]; 30 μM compound): 0.000429 s⁻¹ | kobs ([2]; 40 μM compound): 0.000467 s⁻¹ | kobs ([2]; 50 μM compound): 0.000491 s⁻¹ | kobs ([2]; 60 μM compound): 0.000519 s⁻¹ | kobs ([2]; 70 μM compound): 0.00055 s⁻¹ | kobs ([2]; 80 μM compound): 0.000558 s⁻¹ | kobs ([2]; 100 μM compound): 0.000582 s⁻¹ | kobs ([2]; 200 μM compound): 0.000643 s⁻¹ | kobs ([2]; 400 μM compound): 0.00061 s⁻¹ | kobs ([2]; 600 μM compound): 0.000556 s⁻¹ | kobs ([2]; 800 μM compound): 0.000527 s⁻¹ | A (PKA activity) ([3]; concentration 1 μM): 2.9904 U/mg | A (PKA activity) ([3]; concentration 1.00E+01 μM): 1.9936 U/mg | A (PKA activity) ([3]; concentration 1.00E-01 μM): 3.8864 U/mg | A (PKA activity) ([3]; concentration 1.00E-02 μM): 2.632 U/mg | A (PKA activity) ([3]; concentration 1.00E-03 μM): 3.2928 U/mg | A (PKA activity) ([3]; concentration 1.00E-05 μM): 2.7664 U/mg | A (PKA activity) ([3]; concentration 5.00E+02 μM): 2.9232 U/mg | A (PKA activity) ([4]; concentration 1 μM): 2.854 U/mg | A (PKA activity) ([4]; concentration 1.00E+01 μM): 3.182 U/mg | A (PKA activity) ([4]; concentration 1.00E-01 μM): 1.472 U/mg | A (PKA activity) ([4]; concentration 1.00E-02 μM): 1.965 U/mg | A (PKA activity) ([4]; concentration 1.00E-03 μM): 1.941 U/mg | A (PKA activity) ([4]; concentration 1.00E-05 μM): 2.019 U/mg | A (PKA activity) ([4]; concentration 5.00E+01 μM): 6.801 U/mg | A (PKA activity) ([4]; concentration 5.00E+02 μM): 9.038 U/mg
